Data reported in patent publication US10202374B2, “6-aryl-4-phenylamino-quinazoline analogs as phosphoinositide-3-kinase inhibitors” (COUNCIL OF SCIENTIFIC & INDUSTRIAL RESEARCH, priority 2014, dated 2019).

Biological target: PI3K-α (Homo sapiens, UniProt P42336)
Experiment: PI3K-α assay (ADP-Glo)
Type: biochemical
Conditions: 0.5 μM, preliminary screening
Method: The enzyme is assayed for 80 min after which 20 ul of ADP-Glo reagent is added. After a further incubation of 40 min, 40 ul of Kinase Detection Buffer is added. The assays are incubated for 40 min and then read on PerkinElmer Envision for 1 sec/well.

PI3K-α, sequence (P42336 whole entry): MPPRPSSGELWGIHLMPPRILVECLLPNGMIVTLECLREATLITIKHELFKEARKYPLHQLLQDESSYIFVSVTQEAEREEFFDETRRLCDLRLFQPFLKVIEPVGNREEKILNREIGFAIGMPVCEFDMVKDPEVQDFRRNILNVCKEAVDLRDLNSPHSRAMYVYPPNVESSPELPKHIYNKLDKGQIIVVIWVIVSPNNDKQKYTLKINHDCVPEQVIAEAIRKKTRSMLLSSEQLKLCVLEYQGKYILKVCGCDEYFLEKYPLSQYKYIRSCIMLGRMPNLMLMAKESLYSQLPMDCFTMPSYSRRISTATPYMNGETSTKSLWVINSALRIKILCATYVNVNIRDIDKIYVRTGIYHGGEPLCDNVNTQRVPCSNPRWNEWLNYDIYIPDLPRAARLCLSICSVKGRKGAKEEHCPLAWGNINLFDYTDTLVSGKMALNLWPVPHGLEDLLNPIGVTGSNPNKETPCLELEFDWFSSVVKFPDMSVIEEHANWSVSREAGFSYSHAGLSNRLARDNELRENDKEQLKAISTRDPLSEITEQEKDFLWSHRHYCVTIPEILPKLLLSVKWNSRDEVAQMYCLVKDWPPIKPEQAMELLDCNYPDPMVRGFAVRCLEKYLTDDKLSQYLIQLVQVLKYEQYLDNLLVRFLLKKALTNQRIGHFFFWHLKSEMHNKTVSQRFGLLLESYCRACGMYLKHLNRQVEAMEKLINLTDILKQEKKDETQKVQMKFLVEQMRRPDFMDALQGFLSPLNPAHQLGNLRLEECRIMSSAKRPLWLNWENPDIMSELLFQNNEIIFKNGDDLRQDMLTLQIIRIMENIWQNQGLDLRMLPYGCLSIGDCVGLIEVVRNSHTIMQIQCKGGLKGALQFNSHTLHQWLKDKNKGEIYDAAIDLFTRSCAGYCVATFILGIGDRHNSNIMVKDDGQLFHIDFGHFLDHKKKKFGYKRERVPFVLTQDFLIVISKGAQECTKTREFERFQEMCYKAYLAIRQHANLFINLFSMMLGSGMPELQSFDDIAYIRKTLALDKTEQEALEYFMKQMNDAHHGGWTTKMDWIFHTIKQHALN
PI3K-α, sequence (P27986 whole entry partner): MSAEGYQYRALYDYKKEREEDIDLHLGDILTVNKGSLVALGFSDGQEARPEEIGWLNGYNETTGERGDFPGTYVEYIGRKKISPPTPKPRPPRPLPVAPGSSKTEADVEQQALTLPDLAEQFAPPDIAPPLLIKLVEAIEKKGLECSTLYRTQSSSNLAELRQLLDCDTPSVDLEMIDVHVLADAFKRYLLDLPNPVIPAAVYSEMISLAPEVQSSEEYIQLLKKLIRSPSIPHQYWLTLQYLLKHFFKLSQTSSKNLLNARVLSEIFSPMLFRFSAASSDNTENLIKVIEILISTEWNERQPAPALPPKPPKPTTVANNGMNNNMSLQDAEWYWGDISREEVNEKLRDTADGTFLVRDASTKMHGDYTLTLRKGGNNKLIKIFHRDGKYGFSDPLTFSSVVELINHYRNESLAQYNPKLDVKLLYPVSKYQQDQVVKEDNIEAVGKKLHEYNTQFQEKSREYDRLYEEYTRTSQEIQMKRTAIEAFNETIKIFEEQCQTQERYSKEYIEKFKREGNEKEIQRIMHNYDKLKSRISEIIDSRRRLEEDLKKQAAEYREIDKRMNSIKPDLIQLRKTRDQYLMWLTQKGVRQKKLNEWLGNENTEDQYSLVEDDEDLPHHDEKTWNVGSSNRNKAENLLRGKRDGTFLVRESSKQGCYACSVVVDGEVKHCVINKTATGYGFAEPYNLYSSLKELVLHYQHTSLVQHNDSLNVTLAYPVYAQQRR

Row | SMILES | inhibition at 0.5 µM [%]
1 | N#CCc1ccc(Nc2ncnc3ccc(-c4cccc([N+](=O)[O-])c4)cc23)cc1 [Compound 11, 6-(3-nitrophenyl)-4-(4-cyanomethyl)phenylamino quinazoline] | 38.1
2 | Cc1ccccc1-c1ccc2ncnc(Nc3ccc(CC#N)cc3)c2c1 [Compound 12, 6-(2-methylphenyl)-4-(4-cyanomethyl)phenylamino quinazoline] | 4.1
3 | C=Cc1ccc(-c2ccc3ncnc(Nc4ccc(CC#N)cc4)c3c2)cc1 [Compound 13, 6-(4-vinylphenyl)-4-(4-cyanomethyl)phenylamino quinazoline] | 36.4
4 | N#CCc1ccc(Nc2ncnc3ccc(-c4ccc(OCc5ccc(F)cc5)cc4)cc23)cc1 [Compound 14, 6-(4-fluorobenzyloxyphen-4-yl)-4-(4-cyanomethyl)phenylamino quinazoline] | 11
5 | CC(=O)Nc1cccc(-c2ccc3ncnc(Nc4ccc(CC#N)cc4)c3c2)c1 [Compound 15, 6-(3-acetylaminophenyl)-4-(4-cyanomethyl)phenylamino quinazoline] | 36.8

Same assay, conditions: read-out: PI3K inhibition IC50 -α

Row | SMILES | IC50 [µM]
6 | N#CCc1ccc(Nc2ncnc3ccc(-c4cccc([N+](=O)[O-])c4)cc23)cc1 [Compound 11, 6-(3-nitrophenyl)-4-(4-cyanomethyl)phenylamino quinazoline] | 0.451
7 | C=Cc1ccc(-c2ccc3ncnc(Nc4ccc(CC#N)cc4)c3c2)cc1 [Compound 13, 6-(4-vinylphenyl)-4-(4-cyanomethyl)phenylamino quinazoline] | > 10
8 | CC(=O)Nc1cccc(-c2ccc3ncnc(Nc4ccc(CC#N)cc4)c3c2)c1 [Compound 15, 6-(3-acetylaminophenyl)-4-(4-cyanomethyl)phenylamino quinazoline] | 0.475

Test system: A-375 (melanoma) cells
Experiment: MTT cytotoxicity assay, A375
Type: cell-based
Conditions: Homo sapiens, 48 h treatment, read-out: Anticancer activity IC50 A375
Method: (§1) Compounds proposed in present invention were evaluated for their cytotoxic effect against panel of 5 cancer cell line viz. Panc-1 (pancreatic cancer), MCF-7 (breast cancer), PC-3 (prostate), HL-60 (leukemia) and A-375 (melanoma) using MTT assay. In each well of a 96-well plate, 3×10^3 cells were grown in 100 μL of medium. After 24 h, each test molecules were added to achieve a final concentration of 10 to 0.01 μmol/L, respectively. After 48 h of treatment, 20 μL of 2.5 mg/mL MTT (Organics Research, Inc.) solution in phosphate buffer saline was added to each well. […], supernatant was removed and formazan crystals were dissolved in 200 μL of DMSO. Absorbance was then measured at 570 nm using an absorbance plate reader (Bio-Rad Microplate Reader). Data are expressed as the percentage of viable cells in treated relative to non-treated conditions. Each experiment was repeated thrice and data was expressed as mean±SD of three independent experiments (Mordant, P. et al., Mol. Cancer Ther. 2010, 9, 358).

Row | SMILES | IC50 [µM]
9 | N#CCc1ccc(Nc2ncnc3ccc(-c4cccc([N+](=O)[O-])c4)cc23)cc1 [Compound 11, 6-(3-nitrophenyl)-4-(4-cyanomethyl)phenylamino quinazoline] | 23
10 | Cc1ccccc1-c1ccc2ncnc(Nc3ccc(CC#N)cc3)c2c1 [Compound 12, 6-(2-methylphenyl)-4-(4-cyanomethyl)phenylamino quinazoline] | 32
11 | C=Cc1ccc(-c2ccc3ncnc(Nc4ccc(CC#N)cc4)c3c2)cc1 [Compound 13, 6-(4-vinylphenyl)-4-(4-cyanomethyl)phenylamino quinazoline] | 27
12 | N#CCc1ccc(Nc2ncnc3ccc(-c4ccc(OCc5ccc(F)cc5)cc4)cc23)cc1 [Compound 14, 6-(4-fluorobenzyloxyphen-4-yl)-4-(4-cyanomethyl)phenylamino quinazoline] | 16
13 | CC(=O)Nc1cccc(-c2ccc3ncnc(Nc4ccc(CC#N)cc4)c3c2)c1 [Compound 15, 6-(3-acetylaminophenyl)-4-(4-cyanomethyl)phenylamino quinazoline] | 38

Biological target: PI3K-β (Homo sapiens, UniProt P42338)
Sequence (P42338 whole entry, species assumed): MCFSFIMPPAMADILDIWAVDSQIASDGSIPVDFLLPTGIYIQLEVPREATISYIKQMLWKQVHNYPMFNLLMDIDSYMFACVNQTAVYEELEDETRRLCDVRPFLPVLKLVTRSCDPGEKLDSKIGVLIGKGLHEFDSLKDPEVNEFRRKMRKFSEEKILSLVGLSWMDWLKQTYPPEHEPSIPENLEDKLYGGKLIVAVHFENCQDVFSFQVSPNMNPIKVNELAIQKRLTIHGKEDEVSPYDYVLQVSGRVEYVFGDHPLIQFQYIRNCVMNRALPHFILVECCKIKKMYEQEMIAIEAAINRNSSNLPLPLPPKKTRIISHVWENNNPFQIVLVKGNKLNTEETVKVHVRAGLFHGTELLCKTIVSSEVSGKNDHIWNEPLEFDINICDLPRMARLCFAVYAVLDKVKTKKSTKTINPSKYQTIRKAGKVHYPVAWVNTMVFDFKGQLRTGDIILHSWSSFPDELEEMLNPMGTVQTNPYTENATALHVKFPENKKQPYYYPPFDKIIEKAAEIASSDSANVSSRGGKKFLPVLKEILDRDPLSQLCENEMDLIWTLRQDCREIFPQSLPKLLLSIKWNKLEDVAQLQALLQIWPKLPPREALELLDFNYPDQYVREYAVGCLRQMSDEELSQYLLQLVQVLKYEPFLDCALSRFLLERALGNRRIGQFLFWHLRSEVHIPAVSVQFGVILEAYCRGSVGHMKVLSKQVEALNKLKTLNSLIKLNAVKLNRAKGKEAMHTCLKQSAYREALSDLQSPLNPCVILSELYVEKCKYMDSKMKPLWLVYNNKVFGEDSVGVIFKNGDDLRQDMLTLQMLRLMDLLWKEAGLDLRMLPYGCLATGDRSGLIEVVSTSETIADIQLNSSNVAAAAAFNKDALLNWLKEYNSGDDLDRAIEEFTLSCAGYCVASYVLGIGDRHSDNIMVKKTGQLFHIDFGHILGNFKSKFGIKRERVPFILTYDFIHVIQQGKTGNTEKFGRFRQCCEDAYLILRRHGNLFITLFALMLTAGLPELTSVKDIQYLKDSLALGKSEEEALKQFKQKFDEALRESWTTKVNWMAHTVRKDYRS
Sequence (P27986 whole entry partner, species assumed): as the sequence (P27986 whole entry partner) above
Experiment: PI3K-β assay (ADP-Glo)
Type: biochemical
Conditions: read-out: PI3K inhibition IC50 -β
Method: The enzyme is assayed for 60 min after which 20 ul of ADP-Glo reagent is added. After a further incubation of 40 min, 40 ul of kinase detection Buffer is added. The assays are incubated for 40 min and then read on PerkinElmer Envision for 1 sec/well.

Row | SMILES | IC50 [µM]
14 | N#CCc1ccc(Nc2ncnc3ccc(-c4cccc([N+](=O)[O-])c4)cc23)cc1 [Compound 11, 6-(3-nitrophenyl)-4-(4-cyanomethyl)phenylamino quinazoline] | > 10
15 | C=Cc1ccc(-c2ccc3ncnc(Nc4ccc(CC#N)cc4)c3c2)cc1 [Compound 13, 6-(4-vinylphenyl)-4-(4-cyanomethyl)phenylamino quinazoline] | > 10
16 | CC(=O)Nc1cccc(-c2ccc3ncnc(Nc4ccc(CC#N)cc4)c3c2)c1 [Compound 15, 6-(3-acetylaminophenyl)-4-(4-cyanomethyl)phenylamino quinazoline] | > 10

Same assay, conditions: α versus β isoform

Row | SMILES | Fold-selectivity for PI3K-α with respect to -β [fold]
17 | N#CCc1ccc(Nc2ncnc3ccc(-c4cccc([N+](=O)[O-])c4)cc23)cc1 [Compound 11, 6-(3-nitrophenyl)-4-(4-cyanomethyl)phenylamino quinazoline] | >22.2
18 | C=Cc1ccc(-c2ccc3ncnc(Nc4ccc(CC#N)cc4)c3c2)cc1 [Compound 13, 6-(4-vinylphenyl)-4-(4-cyanomethyl)phenylamino quinazoline] | 1
19 | CC(=O)Nc1cccc(-c2ccc3ncnc(Nc4ccc(CC#N)cc4)c3c2)c1 [Compound 15, 6-(3-acetylaminophenyl)-4-(4-cyanomethyl)phenylamino quinazoline] | >21

Test system: PC-3 (prostate cancer) cells
Experiment: MTT cytotoxicity assay, PC-3
Type: cell-based
Conditions: Homo sapiens, 48 h treatment, read-out: Anticancer activity IC50 PC-3
Method: as §1

Row | SMILES | IC50 [µM]
20 | N#CCc1ccc(Nc2ncnc3ccc(-c4cccc([N+](=O)[O-])c4)cc23)cc1 [Compound 11, 6-(3-nitrophenyl)-4-(4-cyanomethyl)phenylamino quinazoline] | 29
21 | Cc1ccccc1-c1ccc2ncnc(Nc3ccc(CC#N)cc3)c2c1 [Compound 12, 6-(2-methylphenyl)-4-(4-cyanomethyl)phenylamino quinazoline] | 38
22 | C=Cc1ccc(-c2ccc3ncnc(Nc4ccc(CC#N)cc4)c3c2)cc1 [Compound 13, 6-(4-vinylphenyl)-4-(4-cyanomethyl)phenylamino quinazoline] | 34
23 | N#CCc1ccc(Nc2ncnc3ccc(-c4ccc(OCc5ccc(F)cc5)cc4)cc23)cc1 [Compound 14, 6-(4-fluorobenzyloxyphen-4-yl)-4-(4-cyanomethyl)phenylamino quinazoline] | 13
24 | CC(=O)Nc1cccc(-c2ccc3ncnc(Nc4ccc(CC#N)cc4)c3c2)c1 [Compound 15, 6-(3-acetylaminophenyl)-4-(4-cyanomethyl)phenylamino quinazoline] | 26

Test system: HL-60 (leukemia) cells
Experiment: MTT cytotoxicity assay, HL-60
Type: cell-based
Conditions: Homo sapiens, 48 h treatment, read-out: Anticancer activity IC50 HL-60
Method: as §1

Row | SMILES | IC50 [µM]
25 | N#CCc1ccc(Nc2ncnc3ccc(-c4cccc([N+](=O)[O-])c4)cc23)cc1 [Compound 11, 6-(3-nitrophenyl)-4-(4-cyanomethyl)phenylamino quinazoline] | 15
26 | Cc1ccccc1-c1ccc2ncnc(Nc3ccc(CC#N)cc3)c2c1 [Compound 12, 6-(2-methylphenyl)-4-(4-cyanomethyl)phenylamino quinazoline] | 36
27 | C=Cc1ccc(-c2ccc3ncnc(Nc4ccc(CC#N)cc4)c3c2)cc1 [Compound 13, 6-(4-vinylphenyl)-4-(4-cyanomethyl)phenylamino quinazoline] | 16
28 | N#CCc1ccc(Nc2ncnc3ccc(-c4ccc(OCc5ccc(F)cc5)cc4)cc23)cc1 [Compound 14, 6-(4-fluorobenzyloxyphen-4-yl)-4-(4-cyanomethyl)phenylamino quinazoline] | 14
29 | CC(=O)Nc1cccc(-c2ccc3ncnc(Nc4ccc(CC#N)cc4)c3c2)c1 [Compound 15, 6-(3-acetylaminophenyl)-4-(4-cyanomethyl)phenylamino quinazoline] | 23

Test system: Panc-1 (pancreatic cancer) cells
Experiment: MTT cytotoxicity assay, Panc-1
Type: cell-based
Conditions: Homo sapiens, 48 h treatment, read-out: Anticancer activity IC50 Panc-1
Method: as §1

Row | SMILES | IC50 [µM]
30 | N#CCc1ccc(Nc2ncnc3ccc(-c4cccc([N+](=O)[O-])c4)cc23)cc1 [Compound 11, 6-(3-nitrophenyl)-4-(4-cyanomethyl)phenylamino quinazoline] | 7
31 | Cc1ccccc1-c1ccc2ncnc(Nc3ccc(CC#N)cc3)c2c1 [Compound 12, 6-(2-methylphenyl)-4-(4-cyanomethyl)phenylamino quinazoline] | 68
32 | C=Cc1ccc(-c2ccc3ncnc(Nc4ccc(CC#N)cc4)c3c2)cc1 [Compound 13, 6-(4-vinylphenyl)-4-(4-cyanomethyl)phenylamino quinazoline] | 32
33 | N#CCc1ccc(Nc2ncnc3ccc(-c4ccc(OCc5ccc(F)cc5)cc4)cc23)cc1 [Compound 14, 6-(4-fluorobenzyloxyphen-4-yl)-4-(4-cyanomethyl)phenylamino quinazoline] | 13
34 | CC(=O)Nc1cccc(-c2ccc3ncnc(Nc4ccc(CC#N)cc4)c3c2)c1 [Compound 15, 6-(3-acetylaminophenyl)-4-(4-cyanomethyl)phenylamino quinazoline] | 38

Test system: MCF-7 (breast cancer) cells
Experiment: MTT cytotoxicity assay, MCF-7
Type: cell-based
Conditions: Homo sapiens, MCF7, 48 h treatment, read-out: Anticancer activity IC50 MCF-7
Method: as §1

Row | SMILES | IC50 [µM]
35 | N#CCc1ccc(Nc2ncnc3ccc(-c4cccc([N+](=O)[O-])c4)cc23)cc1 [Compound 11, 6-(3-nitrophenyl)-4-(4-cyanomethyl)phenylamino quinazoline] | 12
36 | Cc1ccccc1-c1ccc2ncnc(Nc3ccc(CC#N)cc3)c2c1 [Compound 12, 6-(2-methylphenyl)-4-(4-cyanomethyl)phenylamino quinazoline] | > 100
37 | C=Cc1ccc(-c2ccc3ncnc(Nc4ccc(CC#N)cc4)c3c2)cc1 [Compound 13, 6-(4-vinylphenyl)-4-(4-cyanomethyl)phenylamino quinazoline] | 11
38 | N#CCc1ccc(Nc2ncnc3ccc(-c4ccc(OCc5ccc(F)cc5)cc4)cc23)cc1 [Compound 14, 6-(4-fluorobenzyloxyphen-4-yl)-4-(4-cyanomethyl)phenylamino quinazoline] | 12
39 | CC(=O)Nc1cccc(-c2ccc3ncnc(Nc4ccc(CC#N)cc4)c3c2)c1 [Compound 15, 6-(3-acetylaminophenyl)-4-(4-cyanomethyl)phenylamino quinazoline] | 14

Biological target: PI3K-δ (Homo sapiens, UniProt O00329)
Sequence (O00329 whole entry, species assumed): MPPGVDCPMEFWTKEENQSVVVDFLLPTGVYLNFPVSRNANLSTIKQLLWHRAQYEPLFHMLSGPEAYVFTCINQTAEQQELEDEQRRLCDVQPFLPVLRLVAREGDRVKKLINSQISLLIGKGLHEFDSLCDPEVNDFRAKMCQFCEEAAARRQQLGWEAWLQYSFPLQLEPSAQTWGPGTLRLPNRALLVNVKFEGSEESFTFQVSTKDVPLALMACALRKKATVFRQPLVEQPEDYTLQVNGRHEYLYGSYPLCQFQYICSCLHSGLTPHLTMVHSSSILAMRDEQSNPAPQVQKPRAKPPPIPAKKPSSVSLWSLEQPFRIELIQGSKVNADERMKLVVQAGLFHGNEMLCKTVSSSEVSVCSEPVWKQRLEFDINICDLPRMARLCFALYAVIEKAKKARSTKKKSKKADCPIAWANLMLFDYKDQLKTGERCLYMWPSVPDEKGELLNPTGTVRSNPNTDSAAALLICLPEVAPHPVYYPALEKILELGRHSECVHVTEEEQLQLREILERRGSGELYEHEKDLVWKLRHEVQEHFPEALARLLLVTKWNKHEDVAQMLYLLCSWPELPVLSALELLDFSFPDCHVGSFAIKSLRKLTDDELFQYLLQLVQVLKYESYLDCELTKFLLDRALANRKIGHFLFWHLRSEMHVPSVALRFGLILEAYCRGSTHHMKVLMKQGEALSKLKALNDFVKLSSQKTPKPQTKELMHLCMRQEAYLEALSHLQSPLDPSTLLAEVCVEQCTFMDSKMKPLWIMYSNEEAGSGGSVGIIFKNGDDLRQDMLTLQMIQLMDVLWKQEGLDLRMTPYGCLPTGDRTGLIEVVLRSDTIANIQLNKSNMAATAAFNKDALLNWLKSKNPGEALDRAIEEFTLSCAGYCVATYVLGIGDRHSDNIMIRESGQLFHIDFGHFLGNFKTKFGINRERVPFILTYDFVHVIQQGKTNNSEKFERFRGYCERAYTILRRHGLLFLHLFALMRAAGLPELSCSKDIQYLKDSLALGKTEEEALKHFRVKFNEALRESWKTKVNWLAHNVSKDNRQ
Sequence (P27986 whole entry partner, species assumed): as the sequence (P27986 whole entry partner) above
Experiment: PI3K-δ assay (ADP-Glo)
Type: biochemical
Conditions: read-out: PI3K inhibition IC50 -δ

Row | SMILES | IC50 [µM]
40 | N#CCc1ccc(Nc2ncnc3ccc(-c4cccc([N+](=O)[O-])c4)cc23)cc1 [Compound 11, 6-(3-nitrophenyl)-4-(4-cyanomethyl)phenylamino quinazoline] | > 10
41 | C=Cc1ccc(-c2ccc3ncnc(Nc4ccc(CC#N)cc4)c3c2)cc1 [Compound 13, 6-(4-vinylphenyl)-4-(4-cyanomethyl)phenylamino quinazoline] | > 10
42 | CC(=O)Nc1cccc(-c2ccc3ncnc(Nc4ccc(CC#N)cc4)c3c2)c1 [Compound 15, 6-(3-acetylaminophenyl)-4-(4-cyanomethyl)phenylamino quinazoline] | > 10

Same assay, conditions: α versus δ isoform

Row | SMILES | Fold-selectivity for PI3K-α with respect to -δ [fold]
43 | N#CCc1ccc(Nc2ncnc3ccc(-c4cccc([N+](=O)[O-])c4)cc23)cc1 [Compound 11, 6-(3-nitrophenyl)-4-(4-cyanomethyl)phenylamino quinazoline] | >22.2
44 | C=Cc1ccc(-c2ccc3ncnc(Nc4ccc(CC#N)cc4)c3c2)cc1 [Compound 13, 6-(4-vinylphenyl)-4-(4-cyanomethyl)phenylamino quinazoline] | 1
45 | CC(=O)Nc1cccc(-c2ccc3ncnc(Nc4ccc(CC#N)cc4)c3c2)c1 [Compound 15, 6-(3-acetylaminophenyl)-4-(4-cyanomethyl)phenylamino quinazoline] | >21

Biological target: PI3K-γ (Homo sapiens, UniProt P48736)
Sequence (P48736 whole entry, species assumed): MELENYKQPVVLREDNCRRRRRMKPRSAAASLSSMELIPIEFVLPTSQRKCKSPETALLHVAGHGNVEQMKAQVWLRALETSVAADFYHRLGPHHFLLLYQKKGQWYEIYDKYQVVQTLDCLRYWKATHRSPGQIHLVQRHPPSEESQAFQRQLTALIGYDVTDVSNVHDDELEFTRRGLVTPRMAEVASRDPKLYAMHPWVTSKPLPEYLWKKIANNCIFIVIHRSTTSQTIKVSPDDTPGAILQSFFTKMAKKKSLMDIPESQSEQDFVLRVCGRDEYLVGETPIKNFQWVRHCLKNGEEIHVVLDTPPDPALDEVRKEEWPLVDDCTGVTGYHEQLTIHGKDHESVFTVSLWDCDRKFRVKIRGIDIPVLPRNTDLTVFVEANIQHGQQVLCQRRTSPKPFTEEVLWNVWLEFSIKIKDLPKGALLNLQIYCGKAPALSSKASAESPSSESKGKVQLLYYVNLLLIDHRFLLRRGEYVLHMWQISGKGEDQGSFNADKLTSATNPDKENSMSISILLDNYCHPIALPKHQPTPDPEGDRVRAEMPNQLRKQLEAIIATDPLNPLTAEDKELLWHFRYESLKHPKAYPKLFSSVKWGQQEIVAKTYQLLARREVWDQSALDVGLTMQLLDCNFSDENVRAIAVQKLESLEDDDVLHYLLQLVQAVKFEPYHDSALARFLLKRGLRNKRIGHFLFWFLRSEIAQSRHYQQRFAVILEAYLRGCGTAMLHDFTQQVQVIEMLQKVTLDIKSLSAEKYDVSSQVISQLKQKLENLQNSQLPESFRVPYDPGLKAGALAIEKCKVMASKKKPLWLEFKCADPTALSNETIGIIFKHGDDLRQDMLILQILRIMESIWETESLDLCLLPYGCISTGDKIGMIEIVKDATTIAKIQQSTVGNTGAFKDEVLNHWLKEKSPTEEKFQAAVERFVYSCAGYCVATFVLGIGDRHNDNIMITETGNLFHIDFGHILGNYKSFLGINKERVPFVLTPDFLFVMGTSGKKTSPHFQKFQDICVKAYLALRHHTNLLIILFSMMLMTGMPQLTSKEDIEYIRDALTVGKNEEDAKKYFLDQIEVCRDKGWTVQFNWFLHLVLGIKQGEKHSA
Experiment: PI3K-γ assay (ADP-Glo)
Type: biochemical
Conditions: read-out: PI3K inhibition IC50 -γ
Method: The enzyme is assayed for 75 min after which 20 ul of ADP-Glo reagent is added. After a further incubation of 40 min, 40 ul of Kinase Detection Buffer is added. The assays are incubated for 40 min and then read on PerkinElmer Envision for 1 sec/well.

Row | SMILES | IC50 [µM]
46 | N#CCc1ccc(Nc2ncnc3ccc(-c4cccc([N+](=O)[O-])c4)cc23)cc1 [Compound 11, 6-(3-nitrophenyl)-4-(4-cyanomethyl)phenylamino quinazoline] | 0.85
47 | C=Cc1ccc(-c2ccc3ncnc(Nc4ccc(CC#N)cc4)c3c2)cc1 [Compound 13, 6-(4-vinylphenyl)-4-(4-cyanomethyl)phenylamino quinazoline] | 0.52
48 | CC(=O)Nc1cccc(-c2ccc3ncnc(Nc4ccc(CC#N)cc4)c3c2)c1 [Compound 15, 6-(3-acetylaminophenyl)-4-(4-cyanomethyl)phenylamino quinazoline] | 6.95

Same assay, conditions: α versus γ isoform

Row | SMILES | Fold-selectivity for PI3K-α with respect to -γ [fold]
49 | N#CCc1ccc(Nc2ncnc3ccc(-c4cccc([N+](=O)[O-])c4)cc23)cc1 [Compound 11, 6-(3-nitrophenyl)-4-(4-cyanomethyl)phenylamino quinazoline] | 1.9
50 | CC(=O)Nc1cccc(-c2ccc3ncnc(Nc4ccc(CC#N)cc4)c3c2)c1 [Compound 15, 6-(3-acetylaminophenyl)-4-(4-cyanomethyl)phenylamino quinazoline] | 14.6
